Holding throughout (type): biochemical
The target in test [1] is PKR(G332S) (Homo sapiens, UniProt P30613, G332S). As to the kind of experiment: Luminescence Assay Protocol (Kinase Glo Plus), PKR(G332S/with FBP). The conditions noted are these: PKRG332S, with FBP; for activation at 1.54 µM: compound 1.54 μM, read-out: C - AC50 LUM KGP FBP % Fold @ 1.54 μM mean; for AC50: gmean, read-out: A - AC50 LUM KGP FBP AC50 μM gmean; for Emax: highest % fold increase at any concentration, read-out: B - AC50 LUM KGP FBP MAX % FOLD mean. The protocol:
(§1) Example 47: PKR(Wt/without FBP), PKR(G332S/with FBP), PKR(R510Q/without FBP)
(§2) The phosphorylation of Adenosine-5′-diphosphate (ADP) by various mutants of PKR was determined by the Kinase Glo Plus Assay (Promega) in the presence or absence of FBP [D-Fructose-1,6-diphosphate; BOC Sciences, CAS: 81028-91-3] as follows. Unless otherwise indicated, all reagents were purchased from Sigma-Aldrich. All reagents were prepared in buffer containing 50 mM Tris-HCl, 100 mM KCl, 5 mM MgCl2, and 0.01% Triton X100, 0.03% BSA, and 1 mM DTT. Enzyme and PEP [Phospho(enol) pyruvic acid] were added at 2× to all wells of an assay-ready plate containing serial dilutions of test compounds or DMSO vehicle. Final enzyme concentrations for PKR(wt), PKR(R510Q), and PKR(G332S) were 0.8 nM, 0.8 nM, and 10 nM respectively. Final PEP concentration was 100 μM. The Enzyme/PEP mixture was incubated with compounds for 30 minutes at RT before the assay was initiated with the addition of 2×ADP [Adenosine-5′-diphosphate] and KinaseGloPlus. Final concentration of ADP was 100 μM. […] For assays containing FBP, that reagent is added at 30 μM upon reaction initiation. Reactions were allowed to progress for 45 minutes at RT until luminescence was recorded by the BMG PHERAstar FS Multilabel Reader. All compounds were tested in triplicate at concentrations ranging from 42.5 μM to 2.2 nM in 0.83% DMSO.
(§3) Luminescence values were converted to % Fold increase by normalizing to the average of the DMSO control and multiplying by 100. Max, min, slope and AC50 were determined by the standard four parameter fit algorithm of ActivityBase XE Runner. Compounds were evaluated with three parameters—AC50, MAX % Fold, and % Fold@1.54 μM (FIG. 1). The AC50 value for a compound is the concentration […] corresponding to the midway between the maximum and minimum values of the four parameter logistic curve fit (i.e., at which the % fold increase along the four parameter logistic curve fit is halfway between MAX % Fold and MIN % Fold (% Fold Midpoint)), MAX % Fold is the highest fold increase observed at any concentration of compound, and % Fold@1.54 μM is the fold increase at a compound concentration of 1.54 μM. The parameter % Fold@1.54 μM was selected to capture elements of both the AC50 and MAX % Fold and to provide a ranking based on both potency and effect. The compound concentration of 1.54 μM was chosen as one that can optimally differentiate the set of compounds based on the range of activities observed.
(§4) As set forth in Tables 6 and 7 below, AC50 values (columns A, D, G) are defined as follows: ≤0.1 μM (+++); >0.1 μM and ≤1.0 μM (++); >1.0 μM and ≤40 μM (+); >40 μM (0). Max % FOLD values (columns B, E, H) are defined as follows: ≤75% (+); >75% and ≤250% (++); >250% and ≤500% (+++). % Fold@1.54 μM values (columns C, F, I) are defined as follows: ≤75% (+); >75% and ≤250% (++); >250% and ≤500% (+++).
A general note: In Kinase-Glo more light means more ATP remaining.

For test [2], the target named is PKR(R510Q) (Homo sapiens, UniProt P30613, R510Q). As to the kind of experiment: Luminescence Assay Protocol (Kinase Glo Plus), PKR(R510Q/without FBP). The settings on record: PKRR510Q, without FBP; for F - AC50 LUM KGP woFBP % Fold @ 1.54 μM mean / activation at 1.54 µM: compound 1.54 μM; for AC50: gmean, read-out: D - AC50 LUM KGP woFBP AC50 μM gmean; for Emax: read-out: E - AC50 LUM KGP woFBP MAX % FOLD mean; for activation at 1.54 µM: read-out: F - AC50 LUM KGP woFBP % Fold @ 1.54 μM mean. The protocol:
as §1, §2, §3, §4

For test [3], the target named is PKR(wt) (Homo sapiens, UniProt P30613). The experiment in a line: Luminescence Assay Protocol (Kinase Glo Plus), PKR(Wt/without FBP). The conditions noted are these: without FBP; for activation at 1.54 µM: read-out: I - AC50 LUM KGP woFBP % Fold @ 1.54 μM mean; for AC50: gmean, read-out: G - AC50 LUM KGP woFBP AC50 μM gmean; for Emax: read-out: H - AC50 LUM KGP woFBP MAX % FOLD mean. The protocol: as §1, §2, §3, §4

Where [4] appears, read: highest % fold increase at any concentration.

Chain of PKR(wt) (P30613 whole entry): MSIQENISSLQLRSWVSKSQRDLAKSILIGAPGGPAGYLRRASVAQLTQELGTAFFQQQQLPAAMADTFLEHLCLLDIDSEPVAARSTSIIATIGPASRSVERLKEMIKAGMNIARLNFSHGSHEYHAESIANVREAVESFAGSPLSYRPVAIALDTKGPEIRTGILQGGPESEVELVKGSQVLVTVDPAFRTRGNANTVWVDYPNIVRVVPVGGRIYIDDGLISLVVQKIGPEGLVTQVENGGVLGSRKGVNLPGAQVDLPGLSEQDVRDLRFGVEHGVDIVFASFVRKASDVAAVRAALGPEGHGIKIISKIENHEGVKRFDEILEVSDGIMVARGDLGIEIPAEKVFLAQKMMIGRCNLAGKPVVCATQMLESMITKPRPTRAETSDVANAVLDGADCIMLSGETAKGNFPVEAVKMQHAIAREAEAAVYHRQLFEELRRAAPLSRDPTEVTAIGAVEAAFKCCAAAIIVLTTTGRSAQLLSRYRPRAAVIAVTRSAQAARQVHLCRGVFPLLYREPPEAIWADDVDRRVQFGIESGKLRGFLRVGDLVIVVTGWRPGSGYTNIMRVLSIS
Chain of PKR(R510Q) (P30613 whole entry R510Q): as the sequence (P30613 whole entry) above, with R510Q counted along it
Chain of PKR(G332S) (P30613 whole entry G332S): as the sequence (P30613 whole entry) above, with G332S counted along it

As for `O=C(C1CCCOC1)N1CC2=C(C1)CN(S(=O)(=O)c1ccc3c(c1)NCCO3)C2` (single isomer, unassigned) [Example 33, (S or R)-(5-((3,4-dihydro-2H-benzo[b][1,4]oxazin-6-yl)sulfonyl)-3,4,5,6-tetrahydropyrrolo[3,4-c]pyrrol-2(1H)-yl)(tetrahydro-2H-pyran-3-yl)methanone], the activation at 1.54 µM in test [1] and in test [3] (compound 1.54 μM) was 75 to 250% in each case. Further, the AC50 (as a rule, the concentration giving half of the maximal activity seen) in test [1] is > 40 µM; in test [2], 1 to 40 µM; in test [3] it was 1 to 40 µM. For the same molecule, the Emax was 75 to 250% in test [1], 250 to 500% in test [2] (setting [4]) and 75 to 250% in test [3] (setting [4]). For the same molecule, the “F - AC50 LUM KGP woFBP % Fold @ 1.54 μM mean” value in test [2] is “++ (>75% and ≤250% (++))”.
For `O=C([C@@H]1CCOC1)N1CC2=C(C1)CN(S(=O)(=O)c1ccc(OC(F)F)cc1)C2` [Example 14, (R)-(5-((4-(difluoromethoxy)phenyl)sulfonyl)-3,4,5,6-tetrahydropyrrolo[3,4-c]pyrrol-2(1H)-yl)(tetrahydrofuran-3-yl)methanone], the activation at 1.54 µM in test [1] is 75 to 250%; in test [2] it was 75 to 250%; in test [3] (compound 1.54 μM) it was 250 to 500%. The values for the concentration at half-maximal activity (AC50) in test [1], in test [2] and in test [3] were 0.1 to 1 µM, 1 to 40 µM and 0.1 to 1 µM, respectively. For the same molecule, the results for the Emax in test [1], in test [2] (setting [4]) and in test [3] (setting [4]) were 75 to 250%, 250 to 500% and 250 to 500%, respectively.
Consider `CC(C)(O)[C@@H](C(=O)N1CC2=C(C1)CN(S(=O)(=O)c1ccc(OC(F)F)cc1)C2)c1ccccc1` [Example 28, (S)-1-(5-((4-(difluoromethoxy)phenyl)sulfonyl)-3,4,5,6-tetrahydropyrrolo[3,4-c]pyrrol-2(1H)-yl)-3-hydroxy-3-methyl-2-phenylbutan-1-one], for which the activation at 1.54 µM in test [1], in test [2] and in test [3] (compound 1.54 μM) was 75 to 250% in each case. Besides, the AC50 in test [1] is ≤ 0.1 µM; in test [2], 1 to 40 µM; in test [3], 0.1 to 1 µM. Besides, the Emax in test [1] lay in the range of 75 to 250%; in test [2] (setting [4]), 250 to 500%; in test [3] (setting [4]), 250 to 500%.
`COCCC(=O)N1CC2=C(C1)CN(S(=O)(=O)c1ccc3c(c1)N(C)CCO3)C2` [Example 53, 3-methoxy-1-(5-((4-methyl-3,4-dihydro-2H-benzo[b][1,4]oxazin-6-yl)sulfonyl)-3,4,5,6-tetrahydropyrrolo[3,4-c]pyrrol-2(1H)-yl)propan-1-one]: the activation at 1.54 µM in test [1], in test [2] and in test [3] (compound 1.54 μM) was 75 to 250% each time. Besides, the half-maximal activity concentration (AC50) was > 40 µM in test [1], 1 to 40 µM in test [2] and 0.1 to 1 µM in test [3]. The Emax in test [1], in test [2] (setting [4]) and in test [3] (setting [4]) was 75 to 250% throughout.
As to `O=C([C@@H]1CCOC1)N1CC2=C(C1)CN(S(=O)(=O)c1ccc3ncsc3c1)C2` [Example 20, (R)-(5-(benzo[d]thiazol-6-ylsulfonyl)-3,4,5,6-tetrahydropyrrolo[3,4-c]pyrrol-2(1H)-yl)(tetrahydrofuran-3-yl)methanone], the activation at 1.54 µM in test [1], in test [2] and in test [3] (compound 1.54 μM) was 75 to 250% throughout. Further, the AC50 lay within 0.1 to 1 µM in test [1], 1 to 40 µM in test [2] and 0.1 to 1 µM in test [3]. The Emax in test [1] lay within 75 to 250%; in test [2] (setting [4]), 250 to 500%; in test [3] (setting [4]) it was 250 to 500%.
Take `O=C(C(CO)c1ccccn1)N1CC2=C(C1)CN(S(=O)(=O)c1cnc3c(c1)OCCO3)C2` (single isomer, unassigned) [Example 3, (R or S)-1-(5-((2,3-dihydro-[1,4]dioxino[2,3-b]pyridin-7-yl)sulfonyl)-3,4,5,6-tetrahydropyrrolo[3,4-c]pyrrol-2(1H)-yl)-3-hydroxy-2-(pyridin-2-yl)propan-1-one]: in test [1], the activation at 1.54 µM was in the range of 75 to 250%, the AC50 is 1 to 40 µM and the Emax was in the range of 75 to 250%. Also, in test [2], the “F - AC50 LUM KGP woFBP % Fold @ 1.54 μM mean” value was “++ (>75% and ≤250% (++))”; the concentration at half-maximal activity (AC50) is 0.1 to 1 µM. Further, the “E - AC50 LUM KGP woFBP MAX % FOLD mean” value in test [2] (setting [4]) was “+++ (>250% and ≤500% (+++))”. Also, the “I - AC50 LUM KGP woFBP % Fold @ 1.54 μM mean” value in test [3] (compound 1.54 μM) is “++ (>75% and ≤250% (++))”. Also, in test [3], the concentration at half-maximal activity (AC50) is ≤ 0.1 µM. Besides, in test [3] (setting [4]), the “H - AC50 LUM KGP woFBP MAX % FOLD mean” value is “++ (>75% and ≤250% (++))”.
On to `C[C@@H](O)[C@@H](C(=O)N1CC2=C(C1)CN(S(=O)(=O)c1ccc(OC(F)F)cc1)C2)c1ccccc1` (racemic) [Example 26, (2S,3R and 2R,3S)-1-(5-((4-(difluoromethoxy)phenyl)sulfonyl)-3,4,5,6-tetrahydropyrrolo[3,4-c]pyrrol-2(1H)-yl)-3-hydroxy-2-phenylbutan-1-one], for which the activation at 1.54 µM was 75 to 250% in test [1], 250 to 500% in test [2] and 250 to 500% in test [3] (compound 1.54 μM). Also, the AC50 in test [1], in test [2] and in test [3] was ≤ 0.1 µM in each case. For the same molecule, the Emax was 75 to 250% in test [1], 250 to 500% in test [2] (setting [4]) and 250 to 500% in test [3] (setting [4]).
With `C[C@@H](O)[C@H](C(=O)N1CC2=C(C1)CN(S(=O)(=O)c1ccc(OC(F)F)cc1)C2)c1ccccc1` (racemic) [Example 27, (2R,3R and 2S,3S)-1-(5-((4-(difluoromethoxy)phenyl)sulfonyl)-3,4,5,6-tetrahydropyrrolo[3,4-c]pyrrol-2(1H)-yl)-3-hydroxy-2-phenylbutan-1-one], the activation at 1.54 µM in test [1] fell in the range of 75 to 250%; in test [2], 250 to 500%; in test [3] (compound 1.54 μM), 250 to 500%. Further, the half-maximal activity concentration (AC50) in test [1] is ≤ 0.1 µM; in test [2], 0.1 to 1 µM; in test [3], ≤ 0.1 µM. Moreover, the Emax in test [1] fell in the range of 75 to 250%; in test [2] (setting [4]), 250 to 500%; in test [3] (setting [4]), 250 to 500%.
For the molecule `CC(C)(CO)C(=O)N1CC2=C(C1)CN(S(=O)(=O)c1ccc3ncsc3c1)C2` [Example 19, 1-(5-(benzo[d]thiazol-6-ylsulfonyl)-3,4,5,6-tetrahydropyrrolo[3,4-c]pyrrol-2(1H)-yl)-3-hydroxy-2,2-dimethylpropan-1-one], the activation at 1.54 µM in test [1], in test [2] and in test [3] (compound 1.54 μM) was 75 to 250% each time. Besides, the figures for the half-maximal activity concentration (AC50) in test [1], in test [2] and in test [3] were > 40 µM, 0.1 to 1 µM and 0.1 to 1 µM, respectively. For the same molecule, the figures for the Emax in test [1], in test [2] (setting [4]) and in test [3] (setting [4]) were 75 to 250%, 250 to 500% and 75 to 250%, respectively.

Values taken from patent publication US11649242B2, “Pyrrolopyrrole compositions as pyruvate kinase (PKR) activators” (FORMA Therapeutics, Inc., priority 2017, dated 2023).
